Experimental data as given in PubChem BioAssay (NCI).
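Protocol summary: plate cells (96-well), add compound at 5 concentrations, incubate 48 h, interpolate endpoints linearly. The concentration for 50% growth inhibition is given as GI50. At the TGI there is no net growth.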

Legend:
Experiment in all cases: NCI tumour cell line growth inhibition, 48 h
[1] = system: 786-0 renal
[2] = system: A498 renal
[3] = system: A549 NSCLC
[4] = system: ACHN renal
[5] = system: BT-549 breast
[6] = system: CAKI-1 renal
[7] = system: CCRF-CEM leukemia
[8] = system: COLO 205 colon
[9] = system: DU-145 prostate
[10] = system: HCC-2998 colon
[11] = system: HCT-116 colon
[12] = system: HCT-15 colon
[13] = system: HL-60(TB) leukemia
[14] = system: HOP-62 NSCLC
[15] = system: HOP-92 NSCLC
[16] = system: HS 578T breast
[17] = system: HT29 colon
[18] = system: IGROV1 ovarian
[19] = system: K-562 leukemia
[20] = system: KM12 colon
[21] = system: LOX IMVI melanoma
[22] = system: M14 melanoma
[23] = system: MALME-3M melanoma
[24] = system: MCF7 breast
[25] = system: MDA-MB-231 breast
[26] = system: MDA-MB-435
[27] = system: MOLT-4 leukemia
[28] = system: NCI-H226 lung
[29] = system: NCI-H23 lung
[30] = system: NCI-H460 lung
[31] = system: NCI-H522 lung
[32] = system: NCI/ADR-RES ovarian
[33] = system: OVCAR-3 ovarian
[34] = system: OVCAR-4 ovarian
[35] = system: OVCAR-5 ovarian
[36] = system: OVCAR-8 ovarian
[37] = system: PC-3 prostate
[38] = system: RPMI-8226 leukemia
[39] = system: RXF 393 renal
[40] = system: SF-268 CNS
[41] = system: SF-295 CNS
[42] = system: SF-539 CNS
[43] = system: SK-MEL-2 melanoma
[44] = system: SK-MEL-28 melanoma
[45] = system: SK-MEL-5 melanoma
[46] = system: SK-OV-3 ovarian
[47] = system: SN12C renal
[48] = system: SNB-19 CNS
[49] = system: SNB-75 CNS
[50] = system: SR leukemia
[51] = system: SW-620 colon
[52] = system: T-47D breast
[53] = system: TK-10 renal
[54] = system: U251 CNS
[55] = system: UACC-257 melanoma
[56] = system: UACC-62 melanoma
[57] = system: UO-31 renal

## COc1cc(OC)c(/C=C/c2cc[n+](C)c3ccccc23)c(OC)c1
[1]
  GI50: 4.4 µM
  TGI: 22.3 µM
[2]
  GI50: 1.24 µM
  TGI: 6.04 µM
[3]
  GI50: 1.8 µM
  TGI: 54.6 µM
[4]
  GI50: 13.5 µM
  TGI: > 100 µM
[5]
  GI50: 1.79 µM
  TGI: 13.6 µM
[6]
  GI50: 18.3 µM
  TGI: > 100 µM
[7]
  GI50: 2.71 µM
  TGI: > 100 µM
[8]
  GI50: 1.23 µM
  TGI: 2.9 µM
[9]
  GI50: 2.47 µM
  TGI: 15.5 µM
[10]
  GI50: 2.46 µM
  TGI: 13.9 µM
[11]
  GI50: 1.27 µM
  TGI: 33.7 µM
[12]
  GI50: 23.3 µM
  TGI: > 100 µM
[13]
  GI50: 1.33 µM
  TGI: 8.58 µM
[14]
  GI50: 3.17 µM
  TGI: 20.8 µM
[15]
  GI50: 1.42 µM
  TGI: 4.7 µM
[16]
  GI50: 1.48 µM
  TGI: 12.4 µM
[17]
  GI50: 1.94 µM
  TGI: 7.28 µM
[18]
  GI50: 3.62 µM
  TGI: 25.9 µM
[19]
  GI50: 1 µM
  TGI: > 100 µM
[20]
  GI50: 1.41 µM
  TGI: 3.95 µM
[21]
  GI50: 1.29 µM
  TGI: 3.15 µM
[22]
  GI50: 2.88 µM
  TGI: 15.8 µM
[23]
  GI50: 1.87 µM
  TGI: 8.04 µM
[24]
  GI50: 2.7 µM
  TGI: > 100 µM
[25]
  GI50: 2.77 µM
  TGI: 12.8 µM
[26]
  GI50: 1.83 µM
  TGI: 7.37 µM
[27]
  GI50: 3.19 µM
  TGI: 33.9 µM
[28]
  GI50: 1.99 µM
  TGI: 17.3 µM
[29]
  GI50: 1.74 µM
  TGI: 17.3 µM
[30]
  GI50: 0.98 µM
  TGI: 5.85 µM
[31]
  GI50: 1.61 µM
  TGI: 6.34 µM
[32]
  GI50: > 100 µM
  TGI: > 100 µM
[33]
  GI50: 1.68 µM
  TGI: 7.35 µM
[34]
  GI50: 2.51 µM
  TGI: 23 µM
[35]
  GI50: 3.66 µM
  TGI: 38.7 µM
[36]
  GI50: 1.62 µM
  TGI: 10.2 µM
[37]
  GI50: 1.68 µM
  TGI: 12.6 µM
[38]
  GI50: 0.648 µM
  TGI: 11.6 µM
[39]
  GI50: 2.66 µM
  TGI: 19.2 µM
[40]
  GI50: 0.691 µM
  TGI: 12.8 µM
[41]
  GI50: 0.702 µM
  TGI: 6.48 µM
[42]
  GI50: 2.14 µM
  TGI: 10.9 µM
[43]
  GI50: 2.66 µM
  TGI: 6.32 µM
[44]
  GI50: 2.3 µM
  TGI: 9.77 µM
[45]
  GI50: 0.928 µM
  TGI: 2.39 µM
[46]
  GI50: 3.32 µM
  TGI: 17.5 µM
[47]
  GI50: 1.05 µM
  TGI: 13 µM
[48]
  GI50: 0.795 µM
  TGI: 15.4 µM
[49]
  GI50: 0.932 µM
  TGI: 11.2 µM
[50]
  GI50: 1.92 µM
  TGI: > 100 µM
[51]
  GI50: 2.56 µM
  TGI: 16.9 µM
[52]
  GI50: 1.72 µM
  TGI: 33.7 µM
[53]
  GI50: 3.54 µM
  TGI: 18.1 µM
[54]
  GI50: 0.536 µM
  TGI: 11.7 µM
[55]
  GI50: 1.86 µM
  TGI: 5.98 µM
[56]
  GI50: 1.58 µM
  TGI: 5.66 µM
[57]
  GI50: 17.3 µM
  TGI: > 100 µM
